The values that follow come from patent US20240269304A1, “BCL-XL INHIBITOR ANTIBODY-DRUG CONJUGATES AND METHODS OF USE THEREOF” (Novartis AG, priority 2020, published 2024).

Format in all cases: cell-based
The test system of one experiment is ncih1436. Description: In vitro ADC activity with combination partners, CellTiter-Glo 5 days, ncih1436 (Example 13). The settings on record: single agent. The method, then: (§1) Antibody drug conjugates (ADCs) targeting IgG, B7H3, CD56, DLK1, DLL3, EpCAM, and SEZ6 were tested against cancer cell lines obtained from ATCC (American Type Culture Collection) or from other commercial cell line vendors (cor1279, ncih1436, ncih146, ncih211, ncih524). The cells were cultured in media that is optimal for their growth at 5% CO2, 37° C. in a tissue culture incubator. Prior to seeding for the proliferation assay, the cells were split at least 2 days before the assay to ensure optimal growth density. On the day of seeding, cells were lifted off tissue culture flasks using 0.25% trypsin. Cell viability and cell density were determined using a cell counter (Vi-Cell XR Cell Viability Analyzer, Beckman Coulter). Cells with higher than 85% viability were seeded in white clear bottom 384-well plates (Greiner cat #781098) at a density of 1000 cells per well in 50 μL of standard growth media. Plates were incubated at 37° C. overnight in a tissue culture incubator.
(§2) The ADCs were prepared in standard phosphate buffered solution to desired concentrations. A series of 10 dilutions were made for each ADC. The prepared drug treatments were then added to the cells resulting in final concentrations of 300 nM to 0.015 nM. Combination partners (Venetoclax and Topotecan) were added at fixed concentrations. Acoustic transfer devices (Echo525, Echo550, Beckman Coulter) were used to add the ADCs or combination partners to the cells. Each treatment was tested in triplicate assay plates. Plates were incubated at 37° C. overnight or for 5 days in a tissue culture incubator. The ability of the ADCs to inhibit cell proliferation and survival was assessed using the Promega CellTiter-Glo® proliferation assay. Plates were incubated at room temperature for 20 minutes to stabilize luminescent signals prior to reading using a multimode plate reader (Pherastar, BMG). Luminescent counts of untreated cells were taken the day after seeding (Day 0 readings), and after 5 days of treatment (Day 5 readings). The Day 5 readings of the untreated cells were compared to the Day 0 readings. Assays with at least one cell doubling during the incubation period were considered valid. To evaluate the effect of the drug treatments, luminescent counts from wells containing untreated cells (100% viability) were used to normalize treated samples. The concentrations of treatment required to inhibit 50% of cell growth or survival ([…]) were calculated using a four parameter logistic regression equation.

For another experiment, the system named is LOUCY (T-ALL). The experiment in a line: CellTiter-Glo viability 72 h, single agent or 1/1 combination, LOUCY (Example 9). The settings on record: single agent or 1/1 combination as labelled. The protocol: (§3) Cell lines were cultured in the media described above at 37° C. in a humidified atmosphere containing 5% CO2. Cells were seeded in 96 well clear bottom plates (96 well clear-bottom, white, Corning reference 3903) and exposed to the payloads or ADCs at single agents or in 1/1 combinations with vincristine, ABT-199 or compound A2 for 72 h (serially diluted; 9 concentrations each, triplicates). Effects of payloads or ADCs on cell viability were assessed after 3 days of incubation at 37° C./5% CO2 by quantification of cellular ATP levels using CellTiter-Glo reagent (Promega Ref: G7571) at 75 μL reagent/well. All the conditions were tested in triplicates. Luminescence was quantified on a multipurpose plate reader. IC50s were calculated using standard four-parametric curve fitting. […] Each experiment was performed at least twice, with results being reproducible.
(In general: ATP-based viability assays read luminescence as a measure of living cells.)

A further experiment deals with ncih211. The experiment in a line: In vitro ADC activity with combination partners, CellTiter-Glo 5 days, ncih211 (Example 13). The settings on record: single agent. The protocol:
as §1, §2

A further experiment relates to ALL-SIL cells. The experiment in a line: CellTiterGlo (CTG) cell viability, 72 h, ALL-SIL (Example 8). The procedure, abridged:
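In RPMI with 20% FBS, ALL-SIL cells were exposed for 72 h to serially diluted payloads or ADCs (9 concentrations, triplicate) at 37 °C/5% CO2. Viability was measured as cellular ATP by CellTiterGlo luminescence, with IC50 from four-parameter fit.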

The test system of the next experiment is ncih524. Description: In vitro ADC activity with combination partners, CellTiter-Glo 5 days, ncih524 (Example 13). The conditions noted are these: single agent. The method, then: as §1, §2
The test system of the next experiment is corl279. The experiment in a line: In vitro ADC activity with combination partners (Venetoclax, Topotecan), CellTiter-Glo 5 days, corl279 (Example 13). The conditions noted are these: single agent. The protocol:
as §1, §2

The test system of a further experiment is DND-41 cells. Description: CellTiterGlo (CTG) cell viability, 72 h, DND-41 (Example 8). An outline of the steps:
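DND-41 cells in RPMI with 10% heat-inactivated FBS exposed to payloads or ADCs for 3 days at 37° C/5% CO2, in triplicate. Viability measured as cellular ATP by CellTiterGlo luminescence; IC50 from four-parameter fit.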

For another experiment, the system named is MM1S (MM). The experiment in a line: CellTiter-Glo viability 72 h, single agent or 1/1 combination, MM1S (Example 9). The settings on record: Homo sapiens, MM1.S, single agent or 1/1 combination as labelled. The method, then: as §3

Read-outs that look alike come from different tables or passages of the source.

What is called GI50 is the concentration giving 50% growth inhibition. A word on the IC50: it is the concentration that gives 50% inhibition. As to `Cc1c(Nc2nc3ccccc3s2)nnc2c1CCCN2c1ccc(-c2cnn(C[C@]34C[C@]5(C)C[C@](C)(C3)C[C@@](OCCN3CCCC3)(C5)C4)c2C)c(C(=O)O)n1` [P21, 6-[3-(1,3-benzothiazol-2-ylamino)-4-methyl-6,7-dihydro-5H-pyrido[2,3-c]pyridazin-8-yl]-3-[1-[[3,5-dimethyl-7-(2-pyrrolidin-1-ylethoxy)-1-adamantyl]methyl]-5-methyl-pyrazol-4-yl]pyridine-2-carboxylic acid], the GI50 turned out to be 0.000508 µM with ncih1436 (Homo sapiens, NCI-H1436, 120 h); 0.000508 µM with ncih211 (Homo sapiens, NCI-H211, 120 h); 0.000508 µM in the experiment on ncih524 (Homo sapiens, NCI-H524, 120 h); 0.00242 µM with corl279 (Homo sapiens, COR-L279, 120 h). In the experiment on ncih1436, the “GI Amax ncih1436” value was −94.5. In addition, the IC50 worked out at 0.73 nM in the experiment with LOUCY (T-ALL) (mean, read-out: LOUCY (T-ALL) IC50 mean); 0.73 nM with LOUCY (T-ALL) (n1, read-out: LOUCY (T-ALL) IC50 n1); 0.02 nM in the experiment with ALL-SIL cells (experiment n1, read-out: ALLSIL CTG 72 h IC50 nM n1); 0.05 nM in the experiment on ALL-SIL cells (experiment n2, read-out: ALLSIL CTG 72 h IC50 nM n2); 0.04 nM with ALL-SIL cells (mean of n1 and n2, read-out: ALLSIL CTG 72 h IC50 nM Mean of n1 and n2); 0.31 nM in the experiment with DND-41 cells (DND41, experiment n1, read-out: DND41 CTG 72 h IC50 nM n1). The IC50 in the experiment with DND-41 cells (DND41, experiment n2, read-out: DND41 CTG 72 h IC50 nM n2) worked out at 0.2 nM; with DND-41 cells (DND41, mean of n1 and n2, read-out: DND41 CTG 72 h IC50 nM Mean of n1 and n2), 0.26 nM; in the experiment with MM1S (MM) (mean, read-out: MM1S (MM) IC50 mean), 17.4 nM; in the experiment on MM1S (MM) (n1, read-out: MM1S (MM) IC50 n1), 10.4 nM; with MM1S (MM) (n2, read-out: MM1S (MM) IC50 n2), 24.3 nM. The “GI Amax ncih211” value in the experiment on ncih211 is recorded as −97.26. The “GI Amax ncih524” value in the experiment with ncih524 is −97.52. Further, in the experiment on corl279, the “GI Amax corl279” value was −88.27.
